Values after ≈ are worked out from the molar mass of the structure shown.
Experiment: Toxicity against Artemia larvae
Assay type: organism-based
Settings: in vivo, read-out: LD50 (the source's name)

| SMILES | LC50 [µg/mL] |
| --- | --- |
| CCCC[C@H](C)CC1(CC)C=C(CC)C(CC(=O)OCC)OO1 (some centres undefined) | > 100 |
| CCCC[C@H](C)C[C@]1(CC)C=C(CC)/C(=C/C(=O)OC)O1 | 7 (≈ 23.8 µM) |
| CCCC[C@H](C)CC(CC)C[C@@]1(CC)C[C@H](CC)[C@H](CC(=O)O)OO1 (some centres undefined) | 15 (≈ 42.1 µM) |
| CCCC[C@H](C)CC1(CC)C=C(CC)C(CC(=O)OC)OO1 (some centres undefined) | 70 (≈ 224 µM) |

— ChEMBL document CHEMBL1150935, “New polyketides from the sponge Plakortis sp” (J Nat Prod, 1998)
